Structures can show the parent of a compound that is named as a salt.
Experiments:
Format in all cases: in vivo
[1] = test system: kaolin-induced edema in the hind paw of rats; assay: antiexudative action against the kaolin-induced edema in the hind paw of rats (Hillebrecht); conditions: Rattus norvegicus, po, dose which produces a 35% reduction in the edematous swelling
Protocol: The antiphlogistic activity of the compounds of the present invention was ascertained by the standard test method Hillebrecht described in Arzneimittelforschung 4, 607-614 (1954), i.e. in terms of the antiexudative action against the kaolin-induced edema in the hind paw of rats. The measurements were carried out by the method of Doepfner and Cerletti, Int. Arch. Allergy and Appl. Immunology 12, 89-97 (1958). The data thus obtained were plotted on a dose-activity graph, and from the resulting curve the dose which produces a 35% reduction in the edematons swelling (ED35) was graphically calculated for each compound.

[2] = acute toxicity (LD50) in adult laboratory rats; conditions: rat, in vivo, po, adult rats, observation period of 14 days
Protocol: (§1) The acute toxicities of the compounds (LD50) were determined in adult laboratory rats from the percentage of animals which died after administration of varying doses within an observation period of 14 days [see J. Pharmacol. exper. Therap. 96, 99 1949)].

adult laboratory rats = assay: acute toxicity (LD50) in adult laboratory rats; conditions: p.o., rats, printed in parentheses under the LD50 bound; observation period of 14 days
Protocol: as §1

| Structure (SMILES) | ED35 [1] | LD50 at 336 h [2] | animals died (adult laboratory rats) |
| --- | --- | --- | --- |
| Nc1ccccc1-c1ccc(C(O)CCC(=O)O)cc1 (centres unmarked) [B, cyclohexylamine salt of 4-(2'-amino-4-biphenylyl)-4-hydroxy-butyric acid] | 66 mg/kg | 1340 mg/kg |  |
| O=C(O)CCCc1ccc(-c2ccc([N+](=O)[O-])cc2)cc1 [G, cyclohexylamine salt of 4-(4'-nitro-4-biphenylyl)-butyric acid] | 30 mg/kg | > 1000 mg/kg | 0 out of 10 |
| O=C(O)CCCc1ccc(-c2ccccc2[N+](=O)[O-])cc1 [C, cyclohexylamine salt of 4-(2'-nitro-4-biphenylyl)-butyric acid] | 66 mg/kg | > 1000 mg/kg | 3 out of 10 |
| O=C(O)CCCc1ccc(-c2ccccc2Cl)cc1 [F, cyclohexylamine salt of 4-(2'-chloro-4-biphenylyl)-butyric acid] | 50 mg/kg | > 1000 mg/kg | 2 out of 10 |
| O=C(O)CCC(O)c1ccc(-c2ccccc2[N+](=O)[O-])cc1 (centres unmarked) [A, cyclohexylamine salt of 4-(2'-nitro-4-biphenylyl)-4-hydroxy-butyric acid] | 30 mg/kg | > 500 mg/kg | 0 out of 5 |
| O=C(O)CCCc1ccc(-c2ccccc2F)cc1 [D, cyclohexylamine salt of 4-(2'-fluoro-4-biphenylyl)-butyric acid] | 37 mg/kg | > 500 mg/kg | 0 out of 10 |
| O=C(O)CCC(O)c1ccc(-c2ccccc2Cl)cc1 (centres unmarked) [Compound E, cyclohexylamine salt of 4-(2'-chloro-4-biphenylyl)-4-hydroxy-butyric acid] | 27 mg/kg | > 1000 mg/kg | 1 out of 10 |
